The term IC50 denotes the concentration at which inhibition is half-maximal. One may read the Ki as a dissociation constant, usually derived from enzyme kinetics or from competition with a known ligand. A low value points to a stronger hold on the target.

This note sets out measurements from ChEMBL document CHEMBL5357018, “Discovery of Malarial Threonyl tRNA Synthetase Inhibitors by Screening of a Focused Fragment Library” (ACS Med Chem Lett, 2024).

One assay deals with T1, threonine--tRNA ligase (Plasmodium falciparum, UniProt Q8IIA4).
T1 sequence (Q8IIA4 whole entry): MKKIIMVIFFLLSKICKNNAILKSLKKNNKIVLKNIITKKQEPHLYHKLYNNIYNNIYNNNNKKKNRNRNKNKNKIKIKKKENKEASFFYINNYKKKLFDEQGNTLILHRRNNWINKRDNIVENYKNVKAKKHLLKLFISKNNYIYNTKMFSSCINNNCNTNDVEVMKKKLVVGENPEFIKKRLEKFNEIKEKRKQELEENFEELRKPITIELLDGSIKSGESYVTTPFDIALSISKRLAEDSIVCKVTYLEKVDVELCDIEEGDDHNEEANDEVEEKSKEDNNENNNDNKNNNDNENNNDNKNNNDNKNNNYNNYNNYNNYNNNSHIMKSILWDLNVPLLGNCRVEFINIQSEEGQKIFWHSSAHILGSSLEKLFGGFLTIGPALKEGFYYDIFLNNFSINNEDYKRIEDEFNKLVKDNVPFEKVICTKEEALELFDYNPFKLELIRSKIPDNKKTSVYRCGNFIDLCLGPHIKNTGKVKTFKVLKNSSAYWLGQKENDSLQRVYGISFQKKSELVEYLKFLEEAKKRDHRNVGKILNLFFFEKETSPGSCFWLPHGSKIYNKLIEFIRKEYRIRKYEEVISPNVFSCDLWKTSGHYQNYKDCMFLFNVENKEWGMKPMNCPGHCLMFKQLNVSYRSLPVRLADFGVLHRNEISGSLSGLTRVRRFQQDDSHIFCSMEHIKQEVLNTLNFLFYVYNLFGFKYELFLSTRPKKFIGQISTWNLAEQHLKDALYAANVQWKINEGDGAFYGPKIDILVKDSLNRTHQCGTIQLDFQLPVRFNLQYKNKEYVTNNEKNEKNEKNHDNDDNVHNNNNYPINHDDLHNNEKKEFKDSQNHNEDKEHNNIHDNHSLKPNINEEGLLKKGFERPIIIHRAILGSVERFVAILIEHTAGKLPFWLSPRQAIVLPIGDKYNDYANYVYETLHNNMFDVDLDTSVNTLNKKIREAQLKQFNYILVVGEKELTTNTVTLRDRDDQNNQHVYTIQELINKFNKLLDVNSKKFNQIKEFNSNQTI
The experiment in a line: Inhibition of Plasmodium falciparum Threonyl tRNA synthetase.
`C[C@@H](O)[C@H](N)C(=O)NS(=O)(=O)OC[C@H]1O[C@@H](n2cnc3c(N)ncnc32)[C@H](O)[C@@H]1O` had an IC50 of 160 nM. That is a sub-micromolar value.
`C[C@@H](O)[C@H](N)C(=O)NS(=O)(=O)/C=C/c1cccc(-c2cc(N)ncn2)c1` registered a half-maximal inhibitory concentration (IC50) of 57 nM.
On the same count and under the same terms, in the case of `C[C@@H](O)[C@H](N)C(=O)NS(=O)(=O)/C=C/c1ccccc1` it was 33000 nM; in that of `C[C@@H](O)[C@H](N)C(=O)NP(=O)(O)OC[C@@H]1C[C@H](O)[C@H](n2cnc3c(N)ncnc32)O1`, 440 nM.
On the same count and under the same terms, in the case of `C[C@@H]1C[C@H](C)C[C@H](C)[C@@H](O)CC(=O)O[C@H]([C@@H]2CCC[C@H]2C(=O)O)C/C=C/C=C(/C#N)[C@H](O)[C@@H](C)C1` [BORRELIDIN] it was 43 nM.

A further assay has as its target T1, threonine--tRNA ligase.
Regarding `C[C@@H]1C[C@H](C)C[C@H](C)[C@@H](O)CC(=O)O[C@H]([C@@H]2CCC[C@H]2C(=O)O)C/C=C/C=C(/C#N)[C@H](O)[C@@H](C)C1` [BORRELIDIN], the Ki was determined as 160 nM. That is a sub-micromolar value.

For another assay, the target named is T1, threonine--tRNA ligase. This is another data set of the same source.
Description: Inhibition of 6xHis-tag recombinant Plasmodium falciparum threonyl tRNA synthetase expressed in Escherichia using L-threonine and total tRNA by luminescence based assay
Consider `C[C@@H](O)[C@H](N)C(=O)NS(=O)(=O)Oc1ccccc1`, for which the IC50 turned out to be 51000 nM.
`C[C@@H](O)[C@H](N)C(=O)NS(=O)(=O)c1nc2cc(-c3cc(N)ncn3)ccc2s1` returned an IC50 of 100 nM. This IC50 is about 510-fold lower than that of the molecule before.
The same measure, in the same setting: to `C[C@@H](O)[C@H](N)C(=O)NS(=O)(=O)Oc1cccc2ccccc12` belongs 36000 nM.
The molecule `C[C@@H](O)[C@H](N)C(=O)NS(=O)(=O)c1nc2ccccc2s1` yielded an IC50 of 71000 nM.
Same read-out and setting: to `C[C@@H](O)[C@H](N)C(=O)NS(=O)(=O)Oc1cccc2cccnc12` belongs 55000 nM; to `C[C@@H](O)[C@H](N)C(=O)NS(=O)(=O)Oc1cccc2nn(-c3cc(N)ncn3)cc12`, 700 nM; to `C[C@@H](O)[C@H](N)C(=O)NS(=O)(=O)Oc1ccc(-c2cc(N)ncn2)cc1`, 800 nM.
Still for that read-out and setting: in the case of `C[C@@H](O)[C@H](N)C(=O)NS(=O)(=O)Oc1ccc2ccccc2c1` it was 30000 nM.
